Assay results: patent publication US20070072246A1, “Cell-based assays for determining drug action” (priority 2003, published 2007)
Where two headings read alike, the source gives them in different places.

Experiments:
[1] = system: primary human endothelial cells (EC); test: 3C system: endothelial cells stimulated with IL-1β, TNF-α and IFN-γ, readout parameters by cell-based ELISA; conditions: 24 hr cytokine activation; non-toxic concentrations
Protocol: Cell culture. Human umbilical vein endothelial cells (HUVEC) were obtained from Cascade Biologics (Portland, Oreg.) and cultured in EGM-2 medium containing supplements provided by the manufacturer and 2% heat inactivated fetal bovine serum (Hyclone, Logan, Utah) and subcultured with 0.05% trypsin-0.53 mM EDTA (Mediatech, Herndon, Va.) as described by the manufacturer. […] Experiments were performed by culturing HUVEC in microtiter plates (Falcon; BD Biosciences), in the presence of cytokines (IL-1β, 1 ng/ml; TNF-α, 5 ng/ml; and IFN-γ, 100 ng/ml), activators (SAg, 20 ng/ml or LPS, 0.2 ng/ml), and/or PBMC (7.5×10^4) for the indicated times. Drugs were added 1 hr before stimulation and were present during the whole 24 hr stimulation period.
Cell-based ELISAs. […] Briefly, microtiter plates containing treated and stimulated HUVEC (or HUVEC/PBMC) were blocked, and then incubated with primary antibodies or isotype control antibodies (0.01-0.5 μg/ml) for 1 hr. […] Plates were washed and developed with TMB substrate (Clinical Science Products, Mansfield, Mass.) and the absorbance (OD) was read at 450 nm (subtracting the background absorbance at 650 nm) with a Molecular Devices SpectraMAX 190 plate reader (Molecular Devices, Sunnyvale, Calif.).
Data analysis. Mean OD values for each parameter were calculated from triplicate samples per experiment. […]

[2] = system: PBMC and endothelial cell co-culture; test: SAg system: PBMC and endothelial cell co-culture stimulated with superantigen; assay type: cell-based, human
[3] = 24 hr SAg stimulation, non-toxic concentrations

Row | Molecule | activity in the SAg system [2] | activity in the SAg system [2, 3] | other results
1 | COc1cccc(-c2cc(=O)c3ccccc3o2)c1N [PD098059] | – | – | activity in the 3C (endothelial inflammation) system [1]: induces a characteristic response profile
2 | Cc1ccc(-c2nn(C(C)(C)C)c3ncnc(N)c23)cc1 [PP1] | active | – | –
3 | CC(C)(C)n1nc(-c2ccc(Cl)cc2)c2c(N)ncnc21 [PP2] | active | – | –
4 | CCCCOc1cc(CC2CNC(=O)N2)ccc1OC (stereo not drawn) [Ro-20-1274] | – | active | –
5 | Nc1nccc(-c2c(-c3ccc(F)cc3)ncn2C2CCNCC2)n1 [SB220025] | – | retain activity | –
6 | COc1cc2ncnc(Nc3ccc(O)cc3)c2cc1OC [WHI-P131] | – | active | –
7 | CC(C)N(CCC(=O)c1ccc2ccccc2c1)Cc1ccccc1 [ZM39923] | – | active | –
8 | O=c1cc(-c2ccc(O)cc2)oc2cc(O)cc(O)c12 [apigenin] | – | – | activity in the 3C (endothelial inflammation) system [1]: induces a characteristic response profile
9 | CO[C@H]1C[C@@H]2CC[C@@H](C)[C@@](O)(O2)C(=O)C(=O)N2CCCC[C@H]2C(=O)O[C@H]([C@H](C)C[C@@H]2CC[C@@H](O)[C@H](OC)C2)CC(=O)[C@H](C)/C=C(\C)[C@@H](O)[C@@H](OC)C(=O)[C@H](C)C[C@H](C)/C=C/C=C/C=C/1C [rapamycin] | – | active | –
10 | COc1ccc(C2CNC(=O)C2)cc1OC1CCCC1 (stereo not drawn) [rolipram] | – | active | –
11 | IL-1 receptor antagonist: Recombinant human IL-1ra | detects inhibition | – | –
12 | IL-10: Recombinant human IL-10 (protein, UniProt P22301 19-178, looked up) Interleukin-10: SPGQGTQSENSCTHFPGNLPNMLRDLRDAFSRVKTFFQMKDQLDNLLLKESLLEDFKGYLGCQALSEMIQFYLEEVMPQAENQDPDIKAHVNSLGENLKTLRLRLRRCHRFLPCENKSKAVEQVKNAFNKLQEKGIYKAMSEFDIFINYIEAYMTMKIRN | active | – | –
